{"source": "paper PMC10600239", "about": "“Selective MCL-1 inhibitor ABBV-467 is efficacious in tumor models but is associated with cardiac troponin increases in patients” (Communications Medicine, 2023)", "test_in_all_cases": "Off-target profiling (Supplementary Data 1)", "key": {"[1]": {"molecular_target": "off-target receptors, ion channels, and transporters (Homo sapiens, UniProt P41595)", "sequence (P41595 whole entry)": "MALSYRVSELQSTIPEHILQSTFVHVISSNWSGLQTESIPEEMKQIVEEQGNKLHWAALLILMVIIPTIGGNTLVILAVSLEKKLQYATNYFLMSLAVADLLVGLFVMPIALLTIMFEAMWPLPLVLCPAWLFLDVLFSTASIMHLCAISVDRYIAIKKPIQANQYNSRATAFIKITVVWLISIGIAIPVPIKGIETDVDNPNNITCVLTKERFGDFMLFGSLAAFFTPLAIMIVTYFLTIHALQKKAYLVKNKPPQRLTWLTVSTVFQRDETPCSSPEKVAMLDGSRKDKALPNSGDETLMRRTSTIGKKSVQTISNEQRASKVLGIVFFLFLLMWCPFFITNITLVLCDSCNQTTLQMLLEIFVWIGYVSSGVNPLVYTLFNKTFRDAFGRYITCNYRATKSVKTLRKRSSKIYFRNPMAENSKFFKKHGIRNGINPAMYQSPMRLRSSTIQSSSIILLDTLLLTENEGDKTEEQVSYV"}, "[2]": {"molecular_target": "off-target receptors, ion channels, and transporters (Homo sapiens, UniProt Q92918)", "settings": "TR-FRET Kinome; SignalChem A-1169612.6 .025(Subs Conc)"}, "[3]": {"molecular_target": "off-target receptors, ion channels, and transporters (Homo sapiens, UniProt Q13464)", "settings": "TR-FRET Kinome; Invitrogen A-1213250.2 .1(Subs Conc)"}, "[4]": {"molecular_target": "off-target receptors, ion channels, and transporters (Homo sapiens, UniProt P14416)", "sequence (P14416 whole entry)": "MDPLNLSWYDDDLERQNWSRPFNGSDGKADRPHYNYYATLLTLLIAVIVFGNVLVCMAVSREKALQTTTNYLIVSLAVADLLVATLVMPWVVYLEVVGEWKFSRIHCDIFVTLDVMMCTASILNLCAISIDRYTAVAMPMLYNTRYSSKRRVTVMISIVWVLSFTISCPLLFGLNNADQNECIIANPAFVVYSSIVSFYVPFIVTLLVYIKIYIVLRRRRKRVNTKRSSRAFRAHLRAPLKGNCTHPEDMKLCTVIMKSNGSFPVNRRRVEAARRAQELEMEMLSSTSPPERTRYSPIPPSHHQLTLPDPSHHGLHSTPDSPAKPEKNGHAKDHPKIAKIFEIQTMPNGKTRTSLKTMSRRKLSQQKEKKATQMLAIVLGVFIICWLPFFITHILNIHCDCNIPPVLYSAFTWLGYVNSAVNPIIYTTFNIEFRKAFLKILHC"}, "[5]": {"molecular_target": "off-target receptors, ion channels, and transporters (Homo sapiens, UniProt Q96RR4)", "settings": "TR-FRET Kinome; Invitrogen A-1167389.7 .005(Subs Conc)"}, "[6]": {"molecular_target": "off-target receptors, ion channels, and transporters (Homo sapiens, UniProt P09619)", "settings": "TR-FRET Kinome; Invitrogen A-1169612.6 .025(Subs Conc)"}, "[7]": {"molecular_target": "off-target receptors, ion channels, and transporters (Homo sapiens, UniProt Q16288)", "sequence (Q16288 32-839)": "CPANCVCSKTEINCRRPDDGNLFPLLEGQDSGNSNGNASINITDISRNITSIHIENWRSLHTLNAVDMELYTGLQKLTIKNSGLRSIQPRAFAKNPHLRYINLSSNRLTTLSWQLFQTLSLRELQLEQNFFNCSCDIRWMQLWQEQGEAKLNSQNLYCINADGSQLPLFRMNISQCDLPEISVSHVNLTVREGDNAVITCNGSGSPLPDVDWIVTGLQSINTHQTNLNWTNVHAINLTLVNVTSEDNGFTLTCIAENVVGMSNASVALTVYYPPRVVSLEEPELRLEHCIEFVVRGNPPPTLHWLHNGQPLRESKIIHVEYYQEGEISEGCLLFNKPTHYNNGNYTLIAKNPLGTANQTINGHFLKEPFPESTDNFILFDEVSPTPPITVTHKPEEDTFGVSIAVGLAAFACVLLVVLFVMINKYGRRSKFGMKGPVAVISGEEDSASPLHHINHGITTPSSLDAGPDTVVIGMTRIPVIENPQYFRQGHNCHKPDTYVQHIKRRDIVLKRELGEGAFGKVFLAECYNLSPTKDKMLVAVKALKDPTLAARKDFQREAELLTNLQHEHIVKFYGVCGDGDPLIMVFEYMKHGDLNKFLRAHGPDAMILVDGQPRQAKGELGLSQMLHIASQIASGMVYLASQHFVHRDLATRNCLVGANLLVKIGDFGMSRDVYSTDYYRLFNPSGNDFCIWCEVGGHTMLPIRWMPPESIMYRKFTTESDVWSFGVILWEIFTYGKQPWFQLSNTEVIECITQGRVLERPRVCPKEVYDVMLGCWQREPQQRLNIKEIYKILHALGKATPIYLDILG", "settings": "TR-FRET Kinome; Invitrogen A-1202211.2 .025(Subs Conc)"}, "[8]": {"molecular_target": "off-target receptors, ion channels, and transporters (Homo sapiens, UniProt P30542)", "sequence (P30542 whole entry)": "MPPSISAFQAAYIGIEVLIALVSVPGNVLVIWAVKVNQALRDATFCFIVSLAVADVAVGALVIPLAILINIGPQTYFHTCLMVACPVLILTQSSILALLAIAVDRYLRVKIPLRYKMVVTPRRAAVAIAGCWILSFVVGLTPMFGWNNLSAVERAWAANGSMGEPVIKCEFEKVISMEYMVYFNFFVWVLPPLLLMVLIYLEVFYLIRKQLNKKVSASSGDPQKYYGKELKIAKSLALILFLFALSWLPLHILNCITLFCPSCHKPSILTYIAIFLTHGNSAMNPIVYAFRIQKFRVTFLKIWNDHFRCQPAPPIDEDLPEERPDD"}, "[9]": {"molecular_target": "off-target receptors, ion channels, and transporters (Homo sapiens, UniProt P41240)", "settings": "TR-FRET Kinome; SignalChem A-1196581.2 .002(Subs Conc)"}, "[10]": {"molecular_target": "off-target receptors, ion channels, and transporters (Homo sapiens, UniProt O95819)", "settings": "TR-FRET Kinome; Invitrogen A-1180691.2 .1(Subs Conc)"}, "[11]": {"molecular_target": "off-target receptors, ion channels, and transporters (Homo sapiens, UniProt O00141)", "settings": "TR-FRET Kinome; Millipore A-1213250.2 .03(Subs Conc)"}, "[12]": {"molecular_target": "off-target receptors, ion channels, and transporters (Homo sapiens, UniProt P21554)", "sequence (P21554 whole entry)": "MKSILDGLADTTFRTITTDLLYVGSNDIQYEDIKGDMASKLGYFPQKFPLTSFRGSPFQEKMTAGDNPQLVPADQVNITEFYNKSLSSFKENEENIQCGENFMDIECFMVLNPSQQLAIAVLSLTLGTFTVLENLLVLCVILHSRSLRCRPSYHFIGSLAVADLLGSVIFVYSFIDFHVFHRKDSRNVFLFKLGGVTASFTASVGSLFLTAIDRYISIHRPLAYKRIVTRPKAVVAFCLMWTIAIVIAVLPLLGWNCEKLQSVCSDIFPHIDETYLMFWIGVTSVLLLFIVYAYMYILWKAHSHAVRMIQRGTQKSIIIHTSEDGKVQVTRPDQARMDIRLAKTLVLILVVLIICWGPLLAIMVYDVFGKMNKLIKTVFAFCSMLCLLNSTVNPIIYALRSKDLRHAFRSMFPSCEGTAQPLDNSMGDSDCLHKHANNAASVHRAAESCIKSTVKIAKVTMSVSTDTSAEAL"}, "[13]": {"molecular_target": "off-target receptors, ion channels, and transporters (Homo sapiens, UniProt Q9UQM7)", "settings": "TR-FRET Kinome; Invitrogen A-1169612.6 .003(Subs Conc)"}, "[14]": {"molecular_target": "off-target receptors, ion channels, and transporters (Homo sapiens, UniProt O43318)", "sequence (O43318 1-303)": "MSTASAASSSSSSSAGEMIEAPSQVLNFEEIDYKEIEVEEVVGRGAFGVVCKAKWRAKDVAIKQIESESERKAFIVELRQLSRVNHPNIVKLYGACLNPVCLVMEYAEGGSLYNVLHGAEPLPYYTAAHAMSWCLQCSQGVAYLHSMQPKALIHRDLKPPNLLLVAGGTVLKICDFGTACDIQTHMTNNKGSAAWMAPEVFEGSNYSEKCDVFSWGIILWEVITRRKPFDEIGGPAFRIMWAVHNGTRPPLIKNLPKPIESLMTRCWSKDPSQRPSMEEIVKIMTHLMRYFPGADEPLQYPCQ", "sequence (Q15750 437-504 partner)": "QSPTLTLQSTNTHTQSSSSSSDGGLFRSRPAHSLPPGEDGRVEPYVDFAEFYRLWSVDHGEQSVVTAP", "settings": "TR-FRET Kinome, SignalChem A-1167389.7 .05(Subs Conc)"}, "[15]": {"molecular_target": "off-target receptors, ion channels, and transporters (Homo sapiens, UniProt P42680)", "settings": "TR-FRET Kinome; SignalChem A-1214384.2 .02(Subs Conc)"}, "[16]": {"molecular_target": "off-target receptors, ion channels, and transporters (Homo sapiens, UniProt Q07343)", "settings": "read-out: PDE4B2 Human - IC50; Bioprofiling 6pt Antag; cAMP"}, "[17]": {"molecular_target": "off-target receptors, ion channels, and transporters (Homo sapiens, UniProt P30411)", "sequence (P30411 whole entry)": "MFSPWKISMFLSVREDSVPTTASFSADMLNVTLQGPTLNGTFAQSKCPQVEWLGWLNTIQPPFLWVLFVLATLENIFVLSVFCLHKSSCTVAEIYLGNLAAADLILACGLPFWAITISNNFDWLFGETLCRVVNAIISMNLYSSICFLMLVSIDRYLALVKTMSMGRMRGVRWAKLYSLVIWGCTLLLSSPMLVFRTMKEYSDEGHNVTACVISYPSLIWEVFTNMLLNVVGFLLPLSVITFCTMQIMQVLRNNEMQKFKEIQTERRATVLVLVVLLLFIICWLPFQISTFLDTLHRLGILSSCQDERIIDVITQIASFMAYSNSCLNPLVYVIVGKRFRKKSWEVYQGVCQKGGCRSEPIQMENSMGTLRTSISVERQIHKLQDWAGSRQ"}, "[18]": {"molecular_target": "off-target receptors, ion channels, and transporters (Homo sapiens, UniProt P25101)", "sequence (P25101 21-427)": "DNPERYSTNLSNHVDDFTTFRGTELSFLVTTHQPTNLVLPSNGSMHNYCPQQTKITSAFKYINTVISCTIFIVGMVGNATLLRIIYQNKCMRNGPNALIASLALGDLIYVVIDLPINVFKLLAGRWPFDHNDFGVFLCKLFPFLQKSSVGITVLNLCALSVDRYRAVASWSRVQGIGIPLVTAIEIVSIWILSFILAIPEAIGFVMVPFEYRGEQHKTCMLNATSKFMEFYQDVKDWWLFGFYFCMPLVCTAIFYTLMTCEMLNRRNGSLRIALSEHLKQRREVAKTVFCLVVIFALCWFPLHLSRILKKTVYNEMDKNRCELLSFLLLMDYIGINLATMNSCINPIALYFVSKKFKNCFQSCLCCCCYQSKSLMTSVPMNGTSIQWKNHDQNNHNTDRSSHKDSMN"}, "[19]": {"molecular_target": "off-target receptors, ion channels, and transporters (Homo sapiens, UniProt Q14432)", "settings": "Bioprofiling 6pt Antag; cAMP"}, "[20]": {"molecular_target": "off-target receptors, ion channels, and transporters (Homo sapiens, UniProt P31749)", "settings": "TR-FRET Kinome; SignalChem A-1169612.6 .2(Subs Conc)"}, "[21]": {"molecular_target": "off-target receptors, ion channels, and transporters (Homo sapiens, UniProt P35367)", "sequence (P35367 whole entry)": "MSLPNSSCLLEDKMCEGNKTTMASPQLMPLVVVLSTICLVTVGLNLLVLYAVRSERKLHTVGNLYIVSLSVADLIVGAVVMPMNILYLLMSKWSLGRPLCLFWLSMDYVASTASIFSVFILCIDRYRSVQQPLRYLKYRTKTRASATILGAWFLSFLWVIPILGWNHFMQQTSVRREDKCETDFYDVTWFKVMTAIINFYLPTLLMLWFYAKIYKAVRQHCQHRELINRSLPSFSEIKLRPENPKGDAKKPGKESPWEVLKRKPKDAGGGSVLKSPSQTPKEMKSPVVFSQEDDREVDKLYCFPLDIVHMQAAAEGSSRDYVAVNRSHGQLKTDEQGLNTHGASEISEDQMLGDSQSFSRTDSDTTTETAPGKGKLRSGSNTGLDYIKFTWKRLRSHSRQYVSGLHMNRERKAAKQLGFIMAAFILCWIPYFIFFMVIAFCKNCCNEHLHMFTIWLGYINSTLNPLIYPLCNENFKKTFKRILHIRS"}, "[22]": {"molecular_target": "off-target receptors, ion channels, and transporters (Homo sapiens, UniProt Q07912)", "settings": "TR-FRET Kinome; Invitrogen A-1169612.6 .025(Subs Conc)"}, "[23]": {"molecular_target": "off-target receptors, ion channels, and transporters (Homo sapiens, UniProt P07948)", "sequence (P07948 2-512)": "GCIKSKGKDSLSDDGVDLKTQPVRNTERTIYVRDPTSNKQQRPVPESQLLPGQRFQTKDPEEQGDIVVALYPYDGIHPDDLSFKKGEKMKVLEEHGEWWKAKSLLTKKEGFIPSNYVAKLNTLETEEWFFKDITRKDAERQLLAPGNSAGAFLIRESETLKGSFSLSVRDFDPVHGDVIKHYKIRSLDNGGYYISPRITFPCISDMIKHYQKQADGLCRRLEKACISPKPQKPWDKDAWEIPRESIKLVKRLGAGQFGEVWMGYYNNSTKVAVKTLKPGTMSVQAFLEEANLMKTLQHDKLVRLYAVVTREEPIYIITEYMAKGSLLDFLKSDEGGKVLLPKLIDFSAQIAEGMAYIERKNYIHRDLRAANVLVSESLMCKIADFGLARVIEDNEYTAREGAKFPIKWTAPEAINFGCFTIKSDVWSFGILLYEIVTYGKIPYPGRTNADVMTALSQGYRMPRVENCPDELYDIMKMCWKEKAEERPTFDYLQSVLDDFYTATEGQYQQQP", "settings": "TR-FRET Kinome, SignalChem A-1196581.2 .002(Subs Conc)"}, "[24]": {"molecular_target": "off-target receptors, ion channels, and transporters (Homo sapiens, UniProt O94806)", "settings": "TR-FRET Kinome; Invitrogen A-1169612.6 .2(Subs Conc)"}, "[25]": {"molecular_target": "off-target receptors, ion channels, and transporters (Homo sapiens, UniProt P04150)", "settings": "CEREP"}}, "data": [{"smiles": "Cc1c(Cl)c2c(Cl)c(C)c1-c1c(-c3ccc(F)cc3)sc3ncnc(c13)O[C@@H](C(=O)O)Cc1cc(ccc1OCc1ccnc(-c3ccc(OC[C@H]4COCCO4)cc3)n1)OC[C@@H](CN1CCN(C)CC1)O2", "note": "[ABBV-467]", "values": [{"measurement": "5-HT2B CHO Human - EC50", "setting": "[1]; Bioprofiling 6pt Ag", "result": "> 10", "unit": "µM"}, {"measurement": "5-HT2B CHO Human - IC50", "setting": "[1]; Bioprofiling 6pt Antag, Serotonin (5-HT)", "result": "> 10", "unit": "µM"}, {"measurement": "5-HT2B Human (Functional - Agonist Effect) - EC50", "setting": "[1]; CEREP", "result": "> 100", "unit": "µM"}, {"measurement": "5-HT2B Human (Functional - Antagonist Effect) - IC50", "setting": "[1]; CEREP", "result": ">100.00", "unit": "µM"}, {"measurement": "5-HT2B Human (Functional - Antagonist Effect) - Kb", "setting": "[1]; CEREP", "result": ">15.30", "unit": "µM"}, {"measurement": "MAP4K1 - IC50", "setting": "[2]", "result": "> 10", "unit": "µM"}, {"measurement": "Rock1 - IC50", "setting": "[3]", "result": "> 10", "unit": "µM"}, {"measurement": "D2L CHO Human - EC50", "setting": "[4]; Bioprofiling 6pt Ag", "result": "> 10", "unit": "µM"}, {"measurement": "D2L CHO Human - IC50", "setting": "[4]; Bioprofiling 6pt Antag, Quinpirole", "result": "> 10", "unit": "µM"}, {"measurement": "CAMKK2 - IC50", "setting": "[5]", "result": "> 10", "unit": "µM"}, {"measurement": "PDGFRB - IC50", "setting": "[6]", "result": "> 10", "unit": "µM"}, {"measurement": "TrkC - IC50", "setting": "[7]", "result": "> 10", "unit": "µM"}, {"measurement": "TrkC - Ki", "setting": "[7]", "result": ">4.65", "unit": "µM"}, {"measurement": "A1 CHO Human - EC50", "setting": "[8]; Bioprofiling 6pt Ag", "result": "> 10", "unit": "µM"}, {"measurement": "A1 CHO Human - IC50", "setting": "[8]; Bioprofiling 6pt Antag, N6-Cyclopentyladenosine (CPA)", "result": "> 10", "unit": "µM"}, {"measurement": "CSK - IC50", "setting": "[9]", "result": "> 10", "unit": "µM"}, {"measurement": "MAP4K4 - IC50", "setting": "[10]", "result": "> 10", "unit": "µM"}, {"measurement": "SGK1 - IC50", "setting": "[11]", "result": "> 10", "unit": "µM"}, {"measurement": "CB1 CHO Human - EC50", "setting": "[12]; Bioprofiling 6pt Ag", "result": "> 10", "unit": "µM"}, {"measurement": "CB1 CHO Human - IC50", "setting": "[12]; Bioprofiling 6pt Antag, WIN 55,212-2", "result": "> 10", "unit": "µM"}, {"measurement": "CAMK2A - IC50", "setting": "[13]", "result": "> 10", "unit": "µM"}, {"measurement": "IC50", "setting": "[14]; read-out: TAK1-TAB1 - IC50", "result": "> 10", "unit": "µM"}, {"measurement": "Ki", "setting": "[14]; read-out: TAK1-TAB1 - Ki", "result": "> 3.91", "unit": "µM"}, {"measurement": "TEC - IC50", "setting": "[15]", "result": "> 10", "unit": "µM"}, {"measurement": "IC50", "setting": "[16]", "result": "> 10", "unit": "µM"}, {"measurement": "B2 CHO Human - EC50", "setting": "[17]; Bioprofiling 6pt Ag", "result": "> 10", "unit": "µM"}, {"measurement": "B2 CHO Human - IC50", "setting": "[17]; Bioprofiling 6pt Antag, Bradykinin", "result": ">10.00", "unit": "µM"}, {"measurement": "ETA CHO Human - EC50", "setting": "[18]; Bioprofiling 6pt Ag", "result": "> 10", "unit": "µM"}, {"measurement": "ETA CHO Human - IC50", "setting": "[18]; Bioprofiling 6pt Antag, Endothelin-1 (ET-1)", "result": "> 10", "unit": "µM"}, {"measurement": "PDE3A Human - IC50", "setting": "[19]", "result": "> 10", "unit": "µM"}, {"measurement": "Akt1 - IC50", "setting": "[20]", "result": "> 10", "unit": "µM"}, {"measurement": "H1 CHO Human - EC50", "setting": "[21]; Bioprofiling 6pt Ag", "result": "> 10", "unit": "µM"}, {"measurement": "H1 CHO Human - IC50", "setting": "[21]; Bioprofiling 6pt Antag, Histamine", "result": "> 10", "unit": "µM"}, {"measurement": "TNK2 - IC50", "setting": "[22]", "result": "> 10", "unit": "µM"}, {"measurement": "IC50", "setting": "[23]; read-out: LYN-B - IC50", "result": "> 10", "unit": "µM"}, {"measurement": "Ki", "setting": "[23]; read-out: LYN-B - Ki", "result": "> 8.15", "unit": "µM"}, {"measurement": "Prkcn - IC50", "setting": "[24]", "result": "> 10", "unit": "µM"}, {"measurement": "Glucocorticoid Human Agonist Ligand (Binding Assay) - IC50", "setting": "[25]", "result": 1000, "unit": "nM"}]}]}
